# In US11730743B2, “Protection of cells from degeneration and treatment of geographic atrophy” (University of Kentucky Research Foundation, priority 2012, dated 2023):
# Assays:
# wild-type mice = assay: Alu RNA- or pAlu-induced RPE degeneration after subretinal injection (fundus photographs, ZO-1 flat mounts); assay type: in vivo; details: subretinal Alu RNA, test agent intravitreous
# Method: Subretinal injection and imaging. Subretinal injections (1 μL) in mice were performed using a Pico-Injector (PLI-100, Harvard Apparatus). In vivo transfection of plasmids was achieved using 10% Neuroporter (Genlantis). Fundus imaging was performed on a TRC-50 IX camera (Topcon) linked to a digital imaging system (Sony). Immunolabeling of RPE flat mounts was performed using antibodies against human zonula occludens-1 (Invitrogen).
# Fundus photography. Retinal photographs of dilated mouse eyes were taken with a TRC-50 IX camera (Topcon) linked to a digital imaging system (Sony).
# Immunolabeling. Human eyes fixed in 2-4% paraformaldehyde were prepared as eyecups, cryoprotected in 30% sucrose, embedded in optimal cutting temperature compound (Tissue-Tek OCT; Sakura Finetek), and cryosectioned into 10 μm sections. Depigmentation was achieved using 0.25% potassium permanganate and 0.1% oxalic acid. Immunohistochemical staining was performed with the rabbit antibody against NLRP3 (1:100, Sigma Aldrich) or rabbit antibody against Caspase-1 (prediluted, AbCam). Isotype IgG was substituted for the primary antibody to assess the specificity of the staining. Bound antibody was detected with biotin-conjugated secondary antibodies, followed by incubation with ABC reagent and visualized by Vector Blue (Vector Laboratories). Levamisole (Vector Laboratories) was used to block endogenous alkaline phosphatase activity. Slides were washed in PBS, counterstained with neutral red (Fisher Scientific), rinsed with deionized water, air dried, and then mounted in Vectamount (Vector Laboratories). Fluorescent labeling of human tissue was performed with the rabbit antibody against PYCARD (1:50, Clone N-15, Santa Cruz Biotechnology). Immunolabeling was visualized by fluorescently conjugated anti-rabbit secondary antibody (Invitrogen). Tissue autofluorescence was quenched by incubating the sections in 0.3% Sudan black (Fisher Scientific). Sections were mounted in Vectashield with DAPI (Vector Laboratories). Mouse RPE/choroid flat mounts were fixed with 4% paraformaldehyde or 100% methanol, stained with rabbit antibodies against human zonula occludens-1 (1:100, Invitrogen) and visualized with Alexa594 (Invitrogen). All images were obtained using the Leica SP-5 or Zeiss Axio Observer Z1 microscopes.
# Subretinal injection. Subretinal injections (1 μL) in mice were performed using a Pico-Injector (PLI-100, Harvard Apparatus). In vivo transfection of plasmids coding for two different Alu sequences (pAlu) or empty control vector (pNull) (Bennett et al., 2008; Kaneko et al., 2011; Shaikh et al., 1997) was achieved using 10% Neuroporter (Genlantis). AAV1-BEST1-Cre (Alexander and Hauswirth, 2008) or AAV1-BEST1-GFP were injected at […] pfu/mL and in vitro transcribed Alu RNA was injected at 0.3 mg/mL.
# Drug treatments. siRNAs formulated in siRNA buffer (20 mM KCL, 0.2 mM MgCl2 in HEPES buffer at pH 7.5; Dharmacon) or phosphate buffered saline (PBS; Sigma-Aldrich); the TLR4 antagonist Ultra Pure Rhodobacter sphaeroides LPS (LPS-RS, InvivoGen), a peptide inhibitor of MyD88 homodimerization IMG-2005 (IMGENEX), control inhibitor (IMGENEX), recombinant IL-18 (Medical & Biological Laboratories), neutralizing rat antibodies against mouse IL-1β (IMGENEX), neutralizing rat antibodies against mouse IL-18 (Medical & Biological Laboratories), isotype control IgGs (R&D Systems or eBioscience as appropriate), Caspase-1 inhibitor Z-WEHD-FMK (R&D Systems), Caspase-3 inhibitor Z-DEVD-FMK (R&D Systems), Caspase control inhibitor Z-FA-FMK (R&D Systems), (2R,4R)-APDC (Enzo Life Sciences), Glipizide (Sigma-Aldrich), Glyburide (Sigma-Aldrich), and P2X7 receptor antagonist A438079 (Tocris Bioscience) were dissolved in phosphate buffered saline (PBS; Sigma-Aldrich) or dimethyl sulfoxide (DMSO; Sigma-Aldrich), and injected into the vitreous humor in a total volume of 1 μL with a 33-gauge Exmire microsyringe (Ito Corporation). […]
# [1] = system: Dicer1f/f mouse RPE cells; assay: Cell viability of Dicer1f/f mouse RPE cells treated with Ad-Cre; assay type: cell-based
# Method: Adenoviral infection. Cells were plated at density of 15×10^3/cm^2 and after 16 h, at approximately 50% confluence, were infected with AdCre or AdNull (Vector Laboratories) with a multiplicity of infection of 1,000.
# IRAK1/4 = assay: Western blot of phosphorylated IRAK1/4 in human RPE cells; assay type: cell-based; details: normalized to Vinculin
# Method: Protein abundance and activity. Protein abundance was assessed by Western blot analysis using primary antibodies recognizing Caspase-1 (1:500; Invitrogen), pIRAK1 (1:500; Thermo Scientific), pIRAK4 (1:500, Abbomax, Inc), PYCARD (1:200, Santa Cruz Biotechnology), NLRP3 (1:500, Enzo Life Sciences) and Vinculin (1:1,000; Sigma-Aldrich). Caspase-1 activity was visualized using Caspalux1 E1D2 (OncoImmunin) reagent according to the manufacturer's instructions.
# Western blotting. Tissues or cells were homogenized in lysis buffer (10 mM Tris base, pH 7.4, 150 mM NaCl, 1 mM EDTA, 1 mM EGTA, 1% Triton X-100, 0.5% NP-40, protease and phosphatase inhibitor cocktail (Roche)). Protein concentrations were determined using a Bradford assay kit (Bio-Rad) with bovine serum albumin as a standard. Proteins (40-100 μg) were run on NuPAGE Bis-Tris gels (Invitrogen) and transferred to Immun-Blot PVDF membranes (Bio-Rad). Cells were scraped in hot Laemmli buffer (62.5 mM Tris base, pH 6.8, 2% SDS, 5% 2-Mercaptoethanol, 10% Glycerol, 0.01% Bromophenol Blue). Samples were boiled and run on 4-20% NuPAGE Tris-Glycine gels (Invitrogen). […] Protein loading was assessed by immunoblotting using an anti-Vinculin antibody (1:1,000; Sigma-Aldrich). […]
substance,measurement,setting,value
MyD88 inhibitory peptide: peptide inhibitor of MyD88 homodimerization IMG-2005 (IMGENEX),Alu RNA-induced RPE degeneration,wild-type mice,prevented
same,cell death in Dicer1f/f mouse RPE cells treated with adenoviral vector coding for Cre recombinase,[1],prevented cell death
same,Alu RNA-induced phosphorylation of IRAK1/4,IRAK1/4,reduced
